# According to ChEMBL document CHEMBL1201862, “PubChem BioAssay data set” (2004):
#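 Test compounds were applied to cells in 96-well plates for 48 hours at 5 doses. GI50 is the concentration that inhibits growth by half.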 Activity calls are given as the source filed them. Cut-off read from the data, not from the text of the source: active = GI50 up to about 1.1 µM and inactive = higher.
# Assays:
# Assay in all cases: NCI-60 cell line screen, 48 h
# SK-MEL-5 = test system: SK-MEL-5
# OVCAR-3 = test system: OVCAR-3
# HOP-18 = test system: HOP-18
# 786-0 = test system: 786-0
# RXF 393 = test system: RXF 393
# SF-295 = test system: SF-295
# SNB-78 = test system: SNB-78
# HL-60 = test system: HL-60
# HOP-92 = test system: HOP-92
# SF-539 = test system: SF-539
# CAKI-1 = test system: CAKI-1
# SN12C = test system: SN12C
# M14 = test system: M14
# KM12 = test system: KM12
# SW-620 = test system: SW-620
# TK-10 = test system: TK-10
# CCRF-CEM = test system: CCRF-CEM
# U-251 = test system: U-251
# NCI-H460 = test system: NCI-H460
# UACC-62 = test system: UACC-62
# DMS-114 = test system: DMS-114
# XF498 = test system: XF498
# NCI-H23 = test system: NCI-H23
# Malme-3M = test system: Malme-3M
# SNB-75 = test system: SNB-75
# A498 = test system: A498
# HCT-15 = test system: HCT-15
# NCI-H522 = test system: NCI-H522
# SK-MEL-28 = test system: SK-MEL-28
# DMS-273 = test system: DMS-273
# HCC 2998 = test system: HCC 2998
# EKVX = test system: EKVX
# HOP-62 = test system: HOP-62
# OVCAR-4 = test system: OVCAR-4
# ACHN = test system: ACHN
# IGROV-1 = test system: IGROV-1
# M19-MEL = test system: M19-MEL
# MOLT-4 = test system: MOLT-4
# SNB-19 = test system: SNB-19
# LXFL 529 = test system: LXFL 529
# COLO 205 = test system: COLO 205
# SK-OV-3 = test system: SK-OV-3
# A549 = test system: A549
# HCT-116 = test system: HCT-116
# UACC-257 = test system: UACC-257
# KM-20L2 = test system: KM-20L2
# HT-29 = test system: HT-29
# OVCAR-8 = test system: OVCAR-8
# LOX IMVI = test system: LOX IMVI
# SF-268 = test system: SF-268
# K562 = test system: K562
# UO-31 = test system: UO-31
# OVCAR-5 = test system: OVCAR-5
# SK-MEL-2 = test system: SK-MEL-2
# RPMI-8226 = test system: RPMI-8226
# NCI-H226 = test system: NCI-H226
# SR = test system: SR
# DLD-1 = test system: DLD-1
structure (smiles),measurement,setting,value
COc1cc(-c2cc(=O)c3ccccc3o2)ccc1N,GI50,SK-MEL-5,41.1 µM (inactive)
same,GI50,OVCAR-3,62.8 µM (inactive)
same,GI50,HOP-18,27.5 µM (inactive)
same,GI50,786-0,> 100 µM (inactive)
same,GI50,RXF 393,41 µM (inactive)
same,GI50,SF-295,46.7 µM (inactive)
same,GI50,SNB-78,> 100 µM (inactive)
same,GI50,HL-60,16.6 µM (inactive)
same,GI50,HOP-92,33.8 µM (inactive)
same,GI50,SF-539,30.8 µM (inactive)
same,GI50,CAKI-1,11.7 µM (inactive)
same,GI50,SN12C,65.8 µM (inactive)
same,GI50,M14,> 100 µM (inactive)
same,GI50,KM12,39.3 µM (inactive)
same,GI50,SW-620,92.7 µM (inactive)
same,GI50,TK-10,> 100 µM (inactive)
same,GI50,CCRF-CEM,40.6 µM (inactive)
same,GI50,U-251,> 100 µM (inactive)
same,GI50,NCI-H460,37.2 µM (inactive)
same,GI50,UACC-62,79.8 µM (inactive)
same,GI50,DMS-114,63.5 µM (inactive)
same,GI50,XF498,24 µM (inactive)
same,GI50,NCI-H23,33.8 µM (inactive)
same,GI50,Malme-3M,> 100 µM (inactive)
same,GI50,SNB-75,19.7 µM (inactive)
same,GI50,A498,27.2 µM (inactive)
same,GI50,HCT-15,27 µM
same,GI50,NCI-H522,20.5 µM (inactive)
same,GI50,SK-MEL-28,> 100 µM (inactive)
same,GI50,DMS-273,50.2 µM (inactive)
same,GI50,HCC 2998,> 100 µM (inactive)
same,GI50,EKVX,12.8 µM (inactive)
same,GI50,HOP-62,41 µM (inactive)
same,GI50,OVCAR-4,54.5 µM (inactive)
same,GI50,ACHN,47.3 µM (inactive)
same,GI50,IGROV-1,> 100 µM (inactive)
same,GI50,M19-MEL,> 100 µM (inactive)
same,GI50,MOLT-4,25.5 µM (inactive)
same,GI50,SNB-19,43.4 µM (inactive)
same,GI50,LXFL 529,> 100 µM (inactive)
same,GI50,COLO 205,69.3 µM (inactive)
same,GI50,SK-OV-3,> 100 µM (inactive)
same,GI50,A549,52.1 µM (inactive)
same,GI50,HCT-116,54.3 µM (inactive)
same,GI50,UACC-257,> 100 µM (inactive)
same,GI50,KM-20L2,49.5 µM (inactive)
same,GI50,HT-29,52.8 µM (inactive)
same,GI50,OVCAR-8,51.9 µM (inactive)
same,GI50,LOX IMVI,51.1 µM (inactive)
same,GI50,SF-268,26.8 µM (inactive)
same,GI50,K562,60.8 µM (inactive)
same,GI50,UO-31,18.1 µM (inactive)
same,GI50,OVCAR-5,84.7 µM (inactive)
same,GI50,SK-MEL-2,> 100 µM (inactive)
same,GI50,RPMI-8226,45.5 µM (inactive)
same,GI50,NCI-H226,15.2 µM (inactive)
CCN(CC)C(=O)N1CCN(C=S)CC1,GI50,SK-MEL-5,> 100 µM (inactive)
same,GI50,OVCAR-3,> 100 µM (inactive)
same,GI50,HOP-18,> 100 µM (inactive)
same,GI50,786-0,> 100 µM (inactive)
same,GI50,RXF 393,> 100 µM (inactive)
same,GI50,SNB-78,> 100 µM (inactive)
same,GI50,HL-60,> 100 µM (inactive)
same,GI50,SF-539,> 100 µM (inactive)
same,GI50,SN12C,> 100 µM (inactive)
same,GI50,M14,> 100 µM (inactive)
same,GI50,KM12,> 100 µM (inactive)
same,GI50,SW-620,> 100 µM (inactive)
same,GI50,TK-10,> 100 µM (inactive)
same,GI50,CCRF-CEM,> 100 µM (inactive)
same,GI50,U-251,> 100 µM (inactive)
same,GI50,NCI-H460,> 100 µM (inactive)
same,GI50,UACC-62,> 100 µM (inactive)
same,GI50,DMS-114,> 100 µM (inactive)
same,GI50,NCI-H23,> 100 µM (inactive)
same,GI50,Malme-3M,> 100 µM (inactive)
same,GI50,SNB-75,> 100 µM (inactive)
same,GI50,A498,> 100 µM (inactive)
same,GI50,HCT-15,> 100 µM
same,GI50,NCI-H522,> 100 µM (inactive)
same,GI50,SK-MEL-28,> 100 µM (inactive)
same,GI50,DMS-273,> 100 µM (inactive)
same,GI50,HCC 2998,> 100 µM (inactive)
same,GI50,EKVX,> 100 µM (inactive)
same,GI50,HOP-62,> 100 µM (inactive)
same,GI50,OVCAR-4,> 100 µM (inactive)
same,GI50,ACHN,> 100 µM (inactive)
same,GI50,IGROV-1,> 100 µM (inactive)
same,GI50,M19-MEL,> 100 µM (inactive)
same,GI50,MOLT-4,> 100 µM (inactive)
same,GI50,SNB-19,> 100 µM (inactive)
same,GI50,LXFL 529,> 100 µM (inactive)
same,GI50,COLO 205,> 100 µM (inactive)
same,GI50,SK-OV-3,> 100 µM (inactive)
same,GI50,A549,> 100 µM (inactive)
same,GI50,HCT-116,> 100 µM (inactive)
same,GI50,UACC-257,> 100 µM (inactive)
same,GI50,KM-20L2,> 100 µM (inactive)
same,GI50,HT-29,> 100 µM (inactive)
same,GI50,SR,> 100 µM (inactive)
same,GI50,OVCAR-8,> 100 µM (inactive)
same,GI50,LOX IMVI,> 100 µM (inactive)
same,GI50,SF-268,> 100 µM (inactive)
same,GI50,K562,> 100 µM (inactive)
same,GI50,UO-31,> 100 µM (inactive)
same,GI50,OVCAR-5,> 100 µM (inactive)
same,GI50,SK-MEL-2,> 100 µM (inactive)
same,GI50,NCI-H226,> 100 µM (inactive)
same,GI50,DLD-1,> 100 µM (inactive)
N#CC(C#N)=C1NC(=O)CC(=O)N1,GI50,SK-MEL-5,> 100 µM (inactive)
same,GI50,OVCAR-3,> 100 µM (inactive)
same,GI50,786-0,> 100 µM (inactive)
same,GI50,RXF 393,> 100 µM (inactive)
same,GI50,SF-295,> 100 µM (inactive)
same,GI50,SNB-78,> 100 µM (inactive)
same,GI50,HL-60,> 100 µM (inactive)
same,GI50,HOP-92,> 100 µM (inactive)
same,GI50,SF-539,> 100 µM (inactive)
same,GI50,CAKI-1,> 100 µM (inactive)
same,GI50,SN12C,> 100 µM (inactive)
same,GI50,M14,> 100 µM (inactive)
same,GI50,KM12,> 100 µM (inactive)
same,GI50,SW-620,> 100 µM (inactive)
same,GI50,TK-10,> 100 µM (inactive)
same,GI50,CCRF-CEM,> 100 µM (inactive)
same,GI50,U-251,> 100 µM (inactive)
same,GI50,NCI-H460,> 100 µM (inactive)
same,GI50,UACC-62,> 100 µM (inactive)
same,GI50,DMS-114,> 100 µM (inactive)
same,GI50,XF498,> 100 µM (inactive)
same,GI50,NCI-H23,> 100 µM (inactive)
same,GI50,Malme-3M,> 100 µM (inactive)
same,GI50,SNB-75,> 100 µM (inactive)
same,GI50,A498,> 100 µM (inactive)
same,GI50,HCT-15,> 100 µM
same,GI50,NCI-H522,> 100 µM (inactive)
same,GI50,DMS-273,> 100 µM (inactive)
same,GI50,HCC 2998,> 100 µM (inactive)
same,GI50,EKVX,> 100 µM (inactive)
same,GI50,HOP-62,> 100 µM (inactive)
same,GI50,OVCAR-4,> 100 µM (inactive)
same,GI50,IGROV-1,> 100 µM (inactive)
same,GI50,M19-MEL,> 100 µM (inactive)
same,GI50,MOLT-4,> 100 µM (inactive)
same,GI50,SNB-19,> 100 µM (inactive)
same,GI50,LXFL 529,> 100 µM (inactive)
same,GI50,COLO 205,> 100 µM (inactive)
same,GI50,SK-OV-3,> 100 µM (inactive)
same,GI50,A549,> 100 µM (inactive)
same,GI50,HCT-116,> 100 µM (inactive)
same,GI50,UACC-257,> 100 µM (inactive)
same,GI50,KM-20L2,> 100 µM (inactive)
same,GI50,HT-29,> 100 µM (inactive)
same,GI50,SR,> 100 µM (inactive)
same,GI50,OVCAR-8,> 100 µM (inactive)
same,GI50,LOX IMVI,> 100 µM (inactive)
same,GI50,SF-268,> 100 µM (inactive)
same,GI50,K562,> 100 µM (inactive)
same,GI50,UO-31,> 100 µM (inactive)
same,GI50,OVCAR-5,> 100 µM (inactive)
same,GI50,RPMI-8226,> 100 µM (inactive)
same,GI50,NCI-H226,> 100 µM (inactive)
same,GI50,DLD-1,> 100 µM (inactive)
